pEC50, pIC50: −log10 of the molar value. Like-named read-outs stand apart in the source and are kept apart here.
Legend:
CD73 [1] = target: T1, CD73 (Homo sapiens, UniProt P21589); assay: CD73 Biochemical IC50 Assay; conditions: final AMP 15 uM, final CD73 0.3 nM, 25 mM Tris pH 7.4, 5 mM MgCl2, no phosphate
T1 construct: purchased R&D system
T1 sequence (P21589 27-549): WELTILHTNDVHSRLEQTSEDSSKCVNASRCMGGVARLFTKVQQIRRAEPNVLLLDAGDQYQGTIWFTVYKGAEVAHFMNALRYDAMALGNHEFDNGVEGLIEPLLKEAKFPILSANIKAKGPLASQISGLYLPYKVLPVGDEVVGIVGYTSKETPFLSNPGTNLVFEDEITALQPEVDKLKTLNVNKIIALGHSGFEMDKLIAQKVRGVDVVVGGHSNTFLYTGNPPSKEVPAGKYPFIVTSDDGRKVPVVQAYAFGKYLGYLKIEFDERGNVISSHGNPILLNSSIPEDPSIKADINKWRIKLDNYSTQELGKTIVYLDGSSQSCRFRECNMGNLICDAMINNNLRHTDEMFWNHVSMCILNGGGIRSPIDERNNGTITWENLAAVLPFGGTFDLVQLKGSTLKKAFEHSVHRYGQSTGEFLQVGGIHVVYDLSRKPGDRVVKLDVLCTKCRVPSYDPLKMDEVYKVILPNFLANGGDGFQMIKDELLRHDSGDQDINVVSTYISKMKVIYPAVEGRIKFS
Procedure: CD73 Biochemical IC50 Assay
Compound serial dilutions were pre-spotted into Thermo Nunc assay plate. 50 μL CD73 enzyme buffer (CD73 purchased from R&D system=0.6 nM, 25 mM Tris, pH 7.4, 5 mM MgCl2) was added into the assay plate and incubated for 15 mins. […] The samples were run using Rapid fire.

CD73 [2] = target: T1, CD73; type: biochemical; conditions: 1 mM NaH2PO4 in enzyme buffer, final AMP 15 uM, final CD73 0.3 nM
[3] = target: T2, CD73 activity in MDA-MB-231-GFP cells (Homo sapiens, UniProt P21589); assay: MDA-MB-231 Cell Based CD73 Activity Assay (DMEM); conditions: 3000 cells per well, DMEM medium with 10% human plasma, overnight compound treatment, AMP 200 uM
T2 construct: endogenous in cells; host or cells: MDA-MB-231-GFP cells
T2 sequence (P21589 27-549): T1 sequence (P21589 27-549)

| SMILES | pIC50 (CD73 [1]) | pIC50 (CD73 [2]) | pEC50 [3] |
| --- | --- | --- | --- |
| O=c1[nH]cc(-c2cc(N3C[C@@H](O)C(F)(F)C3)c3nccn3n2)c(=O)[nH]1 (single isomer, unassigned) [Example 528] |  | 8.20 | 7.89 |
| O=c1[nH]cc(-c2cc([C@H]3C[C@@H]3c3ccc(F)cc3F)n3ncnc3n2)c(=O)[nH]1 [Example 416, 5-(7-((2S,2S)-2-(2,4-difluorophenyl)cyclopropyl)-[1,2,4]triazolo[1,5-a]pyrimidin-5-yl)pyrimidine-2,4(1H,3H)-dione] |  | 9.15 | 7.48 |
| O=c1[nH]cc(-c2cc([C@H]3C[C@@H]3c3ccc(C(F)(F)F)cc3)n3ncnc3n2)c(=O)[nH]1 [Example 417, 5-(7-((2S,2S)-2-(4-(trifluoromethyl)phenyl)cyclopropyl)-[1,2,4]triazolo[1,5-a]pyrimidin-5-yl)pyrimidine-2,4(1H,3H)-dione] |  | 9.06 | 7.90 |
| O=c1[nH]cc(-c2cc([C@H]3C[C@@H]3c3cc4c(cnn4CC(F)(F)F)cc3F)c3ncc(F)n3n2)c(=O)[nH]1 [Example 613, 5-(3-fluoro-8-((1S,2S)-2-(5-fluoro-1-(2,2,2-trifluoroethyl)-1H-indazol-6-yl)cyclopropyl)imidazo[1,2-b]pyridazin-6-yl)pyrimidine-2,4(1H,3H)-dione] |  | 9.24 | 9.15 |

Continued, values first:

| pIC50 (CD73 [1]) | pIC50 (CD73 [2]) | pEC50 [3] | SMILES |
| --- | --- | --- | --- |
| ≤ 5.60 |  |  | O=c1[nH]cc(-c2cc([C@@H]3CC34CCC4)c3nccn3n2)c(=O)[nH]1 (racemic) [Example 5, (S)-5-(8-(spiro[2.3]hexan-1-yl)imidazo[1,2-b]pyridazin-6-yl)pyrimidine-2,4(1H,3H)-dione and (R)-5-(8-(spiro[2.3]hexan-1-yl)imidazo[1,2-b]pyridazin-6-yl)pyrimidine-2,4(1H,3H)-dione] |
| 7.01 |  |  | O=c1[nH]cc(-c2cc([C@@H]3C[C@H]3c3ccc(C(F)(F)F)c(F)c3)c3nccn3n2)c(=O)[nH]1 (racemic) [Example 100, 5-(8-((2S,2S)-2-(3-fluoro-4-(trifluoromethyl)phenyl)cyclopropyl)imidazo[1,2-b]pyridazin-6-yl)pyrimidine-2,4(1H,3H)-dione and 5-(8-((1R,2R)-2-(3-fluoro-4-(trifluoromethyl)phenyl)cyclopropyl)imidazo[1,2-b]pyridazin-6-yl)pyrimidine-2,4(1H,3H)-dione] |
| 7.80 |  |  | COc1ccccc1[C@@H]1C[C@H]1c1cc(-c2c[nH]c(=O)[nH]c2=O)nn2ccnc12 (racemic) [Example 101, 5-(8-((2S,2S)-2-(2-methoxyphenyl)cyclopropyl)imidazo[1,2-b]pyridazin-6-yl)pyrimidine-2,4(1H,3H)-dione and 5-(8-((1R,2R)-2-(2-methoxyphenyl)cyclopropyl)imidazo[1,2-b]pyridazin-6-yl)pyrimidine-2,4(1H,3H)-dione] |
| 6.98 |  |  | O=c1[nH]cc(-c2cc([C@@H]3C[C@H]3C3CC(F)(F)C3)c3nccn3n2)c(=O)[nH]1 (racemic) [Example 106, 5-(8-((1S,2R)-2-(3,3-difluorocyclobutyl)cyclopropyl)imidazo[1,2-b]pyridazin-6-yl)pyrimidine-2,4(1H,3H)-dione and 5-(8-((1R,2S)-2-(3,3-difluorocyclobutyl)cyclopropyl)imidazo[1,2-b]pyridazin-6-yl)pyrimidine-2,4(1H,3H)-dione] |
|  | 8.94 | 8.80 | O=c1[nH]cc(-c2cc([C@H]3C[C@@H]3c3ccc4c(c3)ncn4CC(F)(F)F)c3nccn3n2)c(=O)[nH]1 [Example 324, 5-(8-((1S,2S)-2-(1-(2,2,2-trifluoroethyl)-1H-benzo[d]imidazol-5-yl)cyclopropyl)imidazo[1,2-b]pyridazin-6-yl)pyrimidine-2,4(1H,3H)-dione] |
|  | < 6.60 | 5.85 | O=c1[nH]cc(-c2cc(N3C[C@@H]4C[C@H]3C(F)(F)C4)c3nccn3n2)c(=O)[nH]1 [Example 644, 5-(8-(6,6-difluoro-2-azabicyclo[2.2.1]heptan-2-yl)imidazo[1,2-b]pyridazin-6-yl)pyrimidine-2,4(1H,3H)-dione] |
